Measurements reported in the NIST ThermoML archive (doi:10.1016/j.jct.2017.08.004).

Assay: molar heat capacity at constant pressure
Conditions: 101.33 kPa

OC[C@@H](O)[C@@H](O)CO [meso-1,2,3,4-butanetetrol]
molar heat capacity at constant pressure [J/K/mol]
Conditions	Small sample (50 mg) DSC	relaxation calorimetry
264.15 K, Crystal	146.16	–
265.15 K, Crystal	146.7	–
266.15 K, Crystal	147.21	–
267.15 K, Crystal	147.61	–
268.15 K, Crystal	148.1	–
269.15 K, Crystal	148.57	–
270 K, Crystal	–	150.4
270.15 K, Crystal	149.15	–
271.15 K, Crystal	149.59	–
272.15 K, Crystal	150.19	–
272.18 K, Crystal	–	151.4
273.15 K, Crystal	150.91	152
274.15 K, Crystal	151.33	–
275.15 K, Crystal	151.84	–
276.15 K, Crystal	152.44	–
277.15 K, Crystal	152.94	–
278.15 K, Crystal	153.58	–
279.15 K, Crystal	154.21	–
280 K, Crystal	–	155.49
280.15 K, Crystal	154.62	–
281.15 K, Crystal	155.17	–
282.15 K, Crystal	155.77	–
282.18 K, Crystal	–	157.05
283.15 K, Crystal	156.24	–
284.15 K, Crystal	156.55	–
285.15 K, Crystal	157.21	–
286.15 K, Crystal	157.62	–
287.15 K, Crystal	158.1	–
288.15 K, Crystal	158.65	–
289.15 K, Crystal	159.25	–
290 K, Crystal	–	160.61
290.15 K, Crystal	159.93	–
291.15 K, Crystal	160.48	–
292.15 K, Crystal	161.05	–
292.3 K, Crystal	–	161.64
293.15 K, Crystal	161.72	–
294.15 K, Crystal	162.21	–
295.15 K, Crystal	162.81	–
296.15 K, Crystal	163.64	–
297.15 K, Crystal	164.09	–
298.15 K, Crystal	164.59	164.8
299.15 K, Crystal	165.2	–
300 K, Crystal	–	165.76
300.15 K, Crystal	165.82	–
301.15 K, Crystal	166.37	–
302.15 K, Crystal	166.97	–
302.36 K, Crystal	–	167.01
303.15 K, Crystal	167.71	–
304.15 K, Crystal	168.28	–
305 K, Crystal	169.01	–
305.15 K, Crystal	169.01	–
306.15 K, Crystal	169.71	–
307.15 K, Crystal	170.39	–
308.15 K, Crystal	171.17	–
309.15 K, Crystal	171.87	–
310 K, Crystal	172.33	–
310.15 K, Crystal	172.47	–
311.15 K, Crystal	173.14	–
312.15 K, Crystal	173.77	–
313.15 K, Crystal	174.6	–
314.15 K, Crystal	175.09	–
315 K, Crystal	175.5	–
315.15 K, Crystal	175.58	–
316.15 K, Crystal	176.2	–
317.15 K, Crystal	176.88	–
318.15 K, Crystal	177.32	–
319.15 K, Crystal	177.89	–
320 K, Crystal	178.54	–
320.15 K, Crystal	178.54	–
321.15 K, Crystal	179.14	–
322.15 K, Crystal	179.7	–
323.15 K, Crystal	180.24	–
324.15 K, Crystal	180.85	–
325 K, Crystal	181.48	–
325.15 K, Crystal	181.48	–
326.15 K, Crystal	181.97	–
327.15 K, Crystal	182.72	–
328.15 K, Crystal	183.34	–
329.15 K, Crystal	183.85	–
330 K, Crystal	184.34	–
330.15 K, Crystal	184.59	–
331.15 K, Crystal	185.18	–
332.15 K, Crystal	185.74	–
333.15 K, Crystal	186.31	–
334.15 K, Crystal	186.85	–
335 K, Crystal	187.15	–
335.15 K, Crystal	187.33	–
336.15 K, Crystal	187.85	–
337.15 K, Crystal	188.31	–
338.15 K, Crystal	188.9	–
339.15 K, Crystal	189.49	–
340 K, Crystal	189.91	–
340.15 K, Crystal	189.94	–
341.15 K, Crystal	190.43	–
342.15 K, Crystal	191.01	–
343.15 K, Crystal	191.56	–
344.15 K, Crystal	192.16	–
345 K, Crystal	192.66	–
345.15 K, Crystal	192.67	–
346.15 K, Crystal	193.32	–
347.15 K, Crystal	193.86	–
348.15 K, Crystal	194.17	–
349.15 K, Crystal	194.83	–
350 K, Crystal	195.43	–
350.15 K, Crystal	195.3	–
351.15 K, Crystal	195.72	–
352.15 K, Crystal	196.34	–
353.15 K, Crystal	197.73	–
354.15 K, Crystal	198.08	–
355 K, Crystal	198.22	–
355.15 K, Crystal	198.55	–
356.15 K, Crystal	199.02	–
357.15 K, Crystal	199.53	–
358.15 K, Crystal	200.16	–
359.15 K, Crystal	200.7	–
360 K, Crystal	201.07	–
360.15 K, Crystal	201.23	–
361.15 K, Crystal	201.82	–
362.15 K, Crystal	202.33	–
363.15 K, Crystal	202.72	–
364.15 K, Crystal	203.4	–
365 K, Crystal	203.99	–
365.15 K, Crystal	203.96	–
366.15 K, Crystal	204.56	–
367.15 K, Crystal	205.27	–
368.15 K, Crystal	205.84	–
369.15 K, Crystal	206.45	–
370 K, Crystal	207.02	–
370.15 K, Crystal	207.1	–
371.15 K, Crystal	207.59	–
372.15 K, Crystal	208.24	–
373.15 K, Crystal	208.9	–
374.15 K, Crystal	209.47	–
375 K, Crystal	210.16	–
375.15 K, Crystal	210.03	–
412.05 K, Liquid	355.49	–
412.15 K, Liquid	355.53	–
412.25 K, Liquid	355.65	–
412.35 K, Liquid	355.53	–
412.45 K, Liquid	355.34	–
412.55 K, Liquid	355.36	–
412.65 K, Liquid	355.43	–
412.75 K, Liquid	355.39	–
412.85 K, Liquid	355.48	–
412.95 K, Liquid	355.36	–
413.05 K, Liquid	355.34	–
413.15 K, Liquid	355.22	–
414.15 K, Liquid	354.92	–
415 K, Liquid	354.91	–
415.15 K, Liquid	354.76	–
416.15 K, Liquid	354.79	–
417.15 K, Liquid	354.7	–
418.15 K, Liquid	354.67	–
419.15 K, Liquid	354.7	–
420 K, Liquid	354.96	–
420.15 K, Liquid	354.81	–
421.15 K, Liquid	354.98	–
422.15 K, Liquid	354.99	–
423.15 K, Liquid	354.99	–
424.15 K, Liquid	354.94	–
425 K, Liquid	355.01	–
425.15 K, Liquid	354.94	–
426.15 K, Liquid	354.95	–
427.15 K, Liquid	355.23	–
428.15 K, Liquid	355.21	–
429.15 K, Liquid	355.15	–
430 K, Liquid	355.06	–
430.15 K, Liquid	355.18	–
431.15 K, Liquid	355.17	–
432.15 K, Liquid	355.17	–
433.15 K, Liquid	355	–
434.15 K, Liquid	354.85	–
435 K, Liquid	355.11	–
435.15 K, Liquid	355.19	–
